Source: patent publication US9642909B2, “Pharmaceutical compositions comprising attenuated Plasmodium sporozoites and glycolipid adjuvants” (Sanaria Inc., priority 2011, dated 2017)
Several values for one entry are separate records, joined by “and”; a condition that tells them apart may be missing. Equal entries are not always repeated. Where two headings read alike, the source gives them in different places.

Assays:
[1] = tested on: IFN-γ-secreting CS-specific CD8+ cells; conditions: irradiated sporozoites SC with α-GalCer by the same route vs without; cited from earlier work
[2] = pre-loaded autologous PBMCs or direct injection; cited from earlier work
CD1d = CD1d (Homo sapiens, UniProt P15813); conditions: cited from earlier work
iNKT cells [3] = conditions: mouse; cited from earlier work
iNKT cells [4] = conditions: human; cited from earlier work
[5] = tested on: pathogenic P. yoelii sporozoites; assay: Protection of BALB/c mice against pathogenic P. yoelii sporozoite challenge after a single IV dose of irr PySPZ with or without 7DW8-5 IP; format: in vivo
Procedure: To determine if the adjuvant 7DW8-5 could decrease the number of doses of irr PySPZ required to confer protection, a suboptimal dosing regimen was performed. irr PySPZ (17NXL) were dissected from the salivary glands of A. stephensi mosquitoes and injected intravenously (IV) into BALB/c mice as a single dose of either of 5×10^4 or 1×10^4 sporozoites. Two μg of 7DW8-5 was concurrently administered intraperitoneally (IP) in some mice. Fourteen days later, mice were challenged with 100 non-irradiated pathogenic P. yoelii sporozoites. Protection was assessed by Giemsa-stained blood smears and was defined as the complete absence of parasitemia 7 and 14 days post infection.
A second experiment was performed to confirm the results shown in Example 1. […] Again, adjuvant in the absence of antigen had no effect.
Using the single dose methodology of Example 1 with radiation attenuated Py sporozoites that have been purified using the purification procedure disclosed in Sim et al. (U.S. Pat. No. 8,043,625, incorporated in its entirety herein by reference) a third experiment was performed. Using 1×10^4 purified sporozoites administered IV in a single dose, 3 out of 10 mice were protected, whereas 7 of 10 mice were protected when the adjuvant was concurrently administered IP.
To determine the optimal single dose of attenuated sporozoites (in conjunction with 7DW8-5 concurrently administered distally IP) that confers protection by the IV route, mice were injected IV with 0, 2500, 5000, 10,000 and 20,000 sporozoites. Two μg of 7DW8-5 were injected IP.

[6] = tested on: pathogenic P. yoelii sporozoites; assay: Protection of BALB/c mice after intradermal immunization with irr PySPZ mixed with 7DW8-5 at base of tail; format: in vivo
Procedure: To determine whether protective immunogenicity of attenuated sporozoites is maintained or enhanced in the presence of 7DW8-5, mice were immunized by intradermal (ID) injection alone, with 2 doses at 2-week intervals of 15,000, 10,000, 5,000 and 2,500 sporozoites and unlike Examples 1-5, 1 μg 7DW8-5 was mixed as a composition with sporozoites and the composition of adjuvant and sporozoites was delivered ID at the base of the tail. With 2 doses of 15,000 sporozoites in the presence of adjuvant 100% of the mice were protected, and at lower doses of sporozoites 60-80% of the mice were protected. In the absence of adjuvant, only 40% of mice receiving 2 doses of 15,000 sporozoites were protected.
Protection conferred by a single dose of a composition of 1 μg 7DW8-5 adjuvant and varying amounts of sporozoites delivered ID was measured. For this 15,000 and 30,000 sporozoites were administered to mice ID as described above. These doses were partially protective at 60% and 40% respectively.
The next step in development was to assess purified irr PySPZ BALB/c/mice were immunized with irr PySPZ purified as described, in the presence or absence of 7DW8-5 adjuvant.

[7] = tested on: pathogenic P. yoelii sporozoites; conditions: versus α-GalCer, cited from earlier work
[8] = summary of Examples 1-3, one dose irr PySPZ IV, 7DW8-5 IP where given

CD1d, sequence (P15813 20-335, species assumed): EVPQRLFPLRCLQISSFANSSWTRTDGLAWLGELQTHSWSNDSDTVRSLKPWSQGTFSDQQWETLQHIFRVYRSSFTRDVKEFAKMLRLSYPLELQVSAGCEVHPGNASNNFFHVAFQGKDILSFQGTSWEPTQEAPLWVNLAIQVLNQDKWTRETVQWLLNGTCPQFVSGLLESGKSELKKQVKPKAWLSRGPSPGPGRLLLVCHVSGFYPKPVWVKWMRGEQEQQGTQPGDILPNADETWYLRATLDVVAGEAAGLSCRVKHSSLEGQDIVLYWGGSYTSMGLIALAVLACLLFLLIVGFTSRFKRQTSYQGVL
CD1d, sequence (P61769 21-119 partner, species assumed): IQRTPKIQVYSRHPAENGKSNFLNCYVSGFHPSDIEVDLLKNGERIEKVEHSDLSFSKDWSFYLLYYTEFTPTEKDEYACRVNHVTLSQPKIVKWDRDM

| Compound | increase in number of IFN-γ-secreting CS-specific CD8+ cells [1] | safety and tolerability [2] | affinity for CD1d (CD1d) | activation of iNKT cells (iNKT cells [3]) | activation of iNKT cells (iNKT cells [4]) | # protected/# challenged ([5]; Example 1, 2 μg 7DW8-5 IP alone, no sporozoites) | # protected/# challenged ([5]; Example 2, 2 μg 7DW8-5 IP alone, no sporozoites) | # protected/# challenged ([5]; Example 3, 2 μg 7DW8-5 IP alone, no sporozoites) | First Challenge # protected/# re-challenged ([5]; Example 4 table, first challenge, 2 μg 7DW8-5 IP alone) | # protected/# challenged ([5]; Example 5, 0 sporozoites, 2 μg 7DW8-5 IP) | percent protected [5, 8] [%] | protected/challenged [5, 8] | # protected/# challenged ([6]; Example 6, 0 sporozoites, 1 μg 7DW8-5 per mouse ID) | protection ([6]; Example 8, adjuvant alone) | malaria-specific humoral response ([7]; co-administered IM with adenovirus vaccine) | malaria-specific CD8+ T cell response ([7]; co-administered IM with suboptimal dose of adenovirus vaccine) | adjuvant effect in enhancing protective efficacy ([7]; single immunizing dose of adenovirus recombinant vaccine) | ability to elicit cytokine production from iNKT cells (iNKT cells [3]) | ability to elicit cytokine production from iNKT cells (iNKT cells [4]) |
| --- | --- | --- | --- | --- | --- | --- | --- | --- | --- | --- | --- | --- | --- | --- | --- | --- | --- | --- | --- |
| CCCCCCCCCCCCCCCCCCCCCCCCCC(=O)N[C@@H](CO[C@H]1O[C@H](CO)[C@H](O)[C@H](O)[C@H]1O)[C@H](O)[C@H](O)CCCCCCCCCCCCCC [α-GalCer, α-galactosylceramide] | seven fold | safe and well tolerated | high affinity | potent activator | potent activator |  |  |  |  |  |  |  |  |  |  |  |  |  |  |
| CCCCCCCCCCCCCC[C@@H](O)[C@@H](O)[C@H](COC1OC(CO)C(O)C(O)C1O)NC(=O)CCCCCCCCCCc1ccc(F)cc1 (stereo partly shown) [7DW8-5] |  |  |  |  |  | no protection and 0/5 | no effect and 0/5 | 0/5 | 0/5 | 0/5 | 0 | 0/15 | 0/5 | No protection | equally if not slightly stronger than α-GalCer | significantly more than α-GalCer | significantly stronger adjuvant effect than α-GalCer | superior ability | superior ability |
